Assay results: patent EP0891773A1, “Use of gamma-linolenic acid for preventing oxydative stress” (priority 1997, dated 1999)
Where two headings read alike, the source gives them in different places.

Test system: fibroblastes dermiques humains normaux
Assay: Protective effect on normal human dermal fibroblasts under oxidative stress (TBH 10^-4 M, 1 h); cell viability by neutral red uptake
Assay type: cell-based
Details: for activity at 0.1 µM: 0,1 µM
Method: Mesure de l'effet protecteur de l'acide γ-linolénique sur des fibroblastes dermiques humains normaux soumis à un stress oxydatif:
Des cultures de fibroblastes dermiques humains normaux sont réalisées selon la méthode décrite par Gilchrest B. A. dans J. Gerontol., vol.35, pp. 537-541, 1980.
A J(0) on ensemence des plaques multipuits de type COSTAR à raison de 50000 cellules par puits. Les cellules sont cultivées dans du milieu MEM Eagle (GIBCO) contenant 10% de sérum de veau foetal, 2 mM de L-glutamine, 1% acides aminés non essentiels, 1 mM pyruvate de sodium et 1% d'un mélange antibiotiques/antimicotiques vendu par la société GIBCO.
A J(+1) le milieu de culture est remplacé par du milieu MEM sans sérum de veau foetal contenant ou ne contenant pas (témoin) la substance à tester.
Des solutions d'acides gras essentiels sont préparés dans des solutions à 0.1 % d'albumine humaine. Les solutions mères sont à 2. 10^-3 M , la dilution minimale est à 10^-4 M dans le milieu de culture sans sérum de veau foetal. L'addition de vitamine E à 30 µM final permet d'éviter les problèmes d'autooxydation des acides gras. Les cellules sont traitées 3 jours sans changement de milieu.
Un stress oxydatif est induit à J(+4). Pour cela, le milieu de culture est retiré et les plaques sont rincées avec du tampon phosphate salin (PBS). 50% des puits sont traités par une solution de terbutyl hydroperoxyde (TBH) à 10^-4 M, les 2 autres puits étant laissés en PBS et l'incubation se poursuit pendant une heure dans un incubateur à 37°C en atmosphère contenant 5% de CO2.
Au bout d'une heure, les plaques sont rincées 3 fois au PBS pour enlever toute trace de TBH. Une solution mère de rouge neutre à […] est diluée au 1/40 dans un milieu minimum (MEM de marque GIBCO). La solution diluée est placée 1h au bain marie à 37°C pour une bonne dissolution puis filtrée sur 0.22 µm pour éliminer les cristaux résiduels. La solution ainsi préparée est ajoutée sur les cellules et les plaques sont mises à l'incubateur à 37°C en atmosphère contenant 5% de CO2 pour 3 h. Après incubation les plaques sont vidées de leur milieu et rincées au PBS. Une solution à 0.4% de formaldéhyde et 1% de chlorure de calcium dans de l'eau est ajoutée dans chaque puits pour une durée de 1 minute. On remplace alors cette solution par une solution à 49% d'éthanol pur dans l'eau et 1% d'acide acétique glacial. On laisse la coloration se développer 30 mn à température ambiante et on lit les plaques au spectrophotomètre à 540 nm.
Pour chaque condition (traité ou témoin), le calcul est effectué de la manière suivante :
Proportion de cellules stressées : rapport de la moyenne des densités optiques mesurées pour les puits traités sur la moyenne des densités optiques mesurées pour les puits non traités.
Pourcentage de résistance : Proportion de cellules stressées dans l'essai sur proportion de cellules stressées dans le témoin x 100
Par ce calcul, le témoin est considéré à 100 % de protection contre le stress oxydatif et les produits présentent un effet protecteur supérieur ou inférieur au témoin.

[1] = Fibroblast, table c, comparison with known antioxidants, 10 µM, control = 100, read-out: Pourcentage de résistance
[2] = Fibroblast, table c, comparison with known antioxidants, 100 µM, control = 100, read-out: Pourcentage de résistance
[3] = Fibroblast, table c, comparison with known antioxidants, 1 mM, control = 100, read-out: Pourcentage de résistance
[4] = Fibroblast, table a, comparison of essential fatty acids, 10 µM, 3 days pretreatment, then TBH 10^-4 M 1 h, control = 100, read-out: Pourcentage de résistance

CC(=O)N[C@@H](CS)C(=O)O [N-Acétyl cystéine]
activity at 10 µM [1]: 94% | activity at 100 µM [2]: 103% | activity at 1000 µM [3]: 107%

CCCCC/C=C\C/C=C\CCCCCCCC(=O)O [Acide Linoléique]
activity at 10 µM [4]: 100%

N[C@@H](CCC(=O)N[C@@H](CS)C(=O)NCC(=O)O)C(=O)O [Glutathion]
activity at 10 µM [1]: 95% | activity at 100 µM [2]: 93% | activity at 1000 µM [3]: 100%

CCCCC/C=C\C/C=C\C/C=C\CCCCC(=O)O [Acide γ-Linolénique, acide γ-linolénique]
activity at 0.01 µM (Fibroblast, table b, dose effect, 0,01 µM, control = 100, read-out: Pourcentage de résistance): 123% | activity at 0.1 µM (Fibroblast, table b, dose effect, control = 100, read-out: Pourcentage de résistance): 130% | activity at 1 µM (Fibroblast, table b, dose effect, 1 µM, control = 100, read-out: Pourcentage de résistance): 119% | activity at 10 µM (Fibroblast, table b, dose effect, 10 µM, control = 100, read-out: Pourcentage de résistance): 121% | activity at 100 µM (Fibroblast, table b, dose effect, 100 µM, control = 100, read-out: Pourcentage de résistance): 95% | activity at 0.1 µM (Fibroblast, table c, comparison with known antioxidants, control = 100, read-out: Pourcentage de résistance): 112% | activity at 10 µM [4]: 124% | effet maximum (concentration of maximum effect in the dose-effect test (table b)): 0,1 µM | résistance au stress oxydatif (conclusion in words on table a (10 µM), only this fatty acid among those tested): augmente la résistance au stress oxydatif | effet protecteur du stress oxydatif (conclusion in words on table c, versus reference antioxidants): comparable à celui de molécules reconnues comme anti-oxydants de référence

S=C(S)N1CCCC1 [Pyrrolidine dithiocarbamate]
activity at 20 µM (Fibroblast, table c, comparison with known antioxidants, 20 µM, control = 100, read-out: Pourcentage de résistance): 97% | activity at 100 µM [2]: 112%

Vitamine E
Pourcentage de résistance (table c, comparison with known antioxidants, 10 µM, control = 100): 112% | Pourcentage de résistance (table c, comparison with known antioxidants, 100 µM, control = 100): 107% | Pourcentage de résistance (table c, comparison with known antioxidants, 1 mM, control = 100): 111%
